Laboratory results as given in PMC5923171, “Novel Zinc-Attenuating Compounds as Potent Broad-Spectrum Antifungal Agents with In Vitro and In Vivo Efficacy” (Antimicrobial Agents and Chemotherapy, 2018).
Values after ≈ are worked out from the molar mass of the structure shown.

What was measured:
[1] = system: Rhizopus oryzae ATCC 34965; assay: Antifungal susceptibility testing (MIC); format: cell-based; conditions: Rhizopus arrhizus, ATCC34965; no visible growth, 48 to 72 h, 34°C
Experimental: (§1) Antifungal susceptibility testing was carried out as described previously ([38], [39]), with a few modifications. Briefly, for each yeast or mold growth inhibition assay, frozen stocks of yeast cells or spores were diluted to a final concentration of 0.5 × 10^5 to 2.5 × 10^5 CFU/ml in sterile water. ZAC989, ZAC307, and ZAC623 were dissolved in DMSO to 10 mM stocks from which half-log serial dilutions were prepared. Growth assays were subsequently performed by pipetting 3 μl of compound dissolved in DMSO (giving a final concentration of 1.5% DMSO), 100 μl of cell-spore suspension, and 97 μl of 2× RPMI medium (20.8 g/liter of RPMI 1640 medium, 69.06 g/liter of morpholinepropanesulfonic acid [MOPS], 36 g/liter of glucose) into a microtiter plate that was incubated for 24 h (yeasts) or 48 to 72 h (molds) at 34°C. Fungal growth was determined spectrophotometrically by optical density reading of each well at a wavelength of 492 nm on a Victor X5 (Perkin-Elmer) plate reader. […] Standard errors between repeated experiments were generally below 5%. The growth effect of exogenous addition of various divalent metals was evaluated by performing the antifungal susceptibility assay in the presence of 5 μM ZAC989 or ZAC307 and with increasing concentrations (0.003 to 50 μM) of ZnSO4, CuSO4, (NH4)2Fe(SO4)2, MgCl2, and CaCl2.

[2] = Potentiometric titration, ligand-copper complex formation; format: binding; conditions: for copper binding (in words): potentiometric titration with CuSO4
Experimental: (§2) The Zn^2+-binding properties of ZAC307 and ZAC989 were further evaluated using a potentiometric assay, where pH is measured as a function of base (NaOH) added to the compound in either the absence or presence of metal. […] To determine the deprotonation constant, a solution of 1 mM ZAC307 or ZAC989 was titrated with 0.3 M NaOH at constant ionic strength (Fig. 2A and B). In a second run, the same titration was performed in the presence of 0.5 eq of Zn^2+ for ZAC307 and ZAC989. A shift in the pH curve in the presence of the metal (ZAC307, 0.5 eq of Zn^2+ [Fig. 2A]) compared to the absence of the metal (ZAC307 [Fig. 2A]) indicates binding of Zn^2+ to the compound. The measured pH data were analyzed with the Hyperquad program suite, taking into account all relevant equilibrium constants, including also the constants for metal hydroxylation. The analysis provides the pKa values and metal complex stability constants, as well as ligand-metal complex speciation calculation, indicating how many ZAC molecules are involved in coordinating the Zn^2+ ion at different pH values. […] ZAC989 bound copper with the formation constants log β1, log β2, and log β3 of 7.83, 13.37, and 20.62, respectively. The most dominant ZAC989-copper stoichiometry was a 3:1 stoichiometry (Fig. 2E).
(§3) Potentiometric measurements were carried out in DMSO-water (70:30, vol/vol) at 25°C as described previously ([22]). Titrations were performed with a pH meter (Denver Instruments) utilizing a glass electrode with AgCl reference filled with 3.0 M KCl. The electrode was equilibrated in DMSO-water (70:30, vol/vol) for at least 1 h before use. All experiments were performed at a constant ionic strength (0.1 M NaClO4). Three milliliters of a solution containing 1 mM compound was titrated with 0.3 M NaOH by manual additions in 1- to 5-μl increments with magnetic stirring. The metal-ligand binding constants were obtained from titrations of the metal complex solutions prepared in a 1:2 metal-to-ligand ratio. The titration data were refined by the nonlinear least-squares refinement program Hyperquad2013 ([37]) to determine the deprotonation and stability constants.

[3] = Potentiometric titration with CaCl2; format: binding; conditions: DMSO-water (70:30, vol/vol)
Experimental: as §2
Potentiometric measurements were carried out in DMSO-water (70:30, vol/vol) at 25°C as described previously ([22]). […]

[4] = system: Candida albicans; assay: Abrogation of the antifungal effect by exogenous divalent metals; format: cell-based; conditions: for fungal growth rate compared to control cells: in the presence of 100 μM Fe^2+
Experimental: as §1, with “[…],” for “susceptibility assay in the presence of 5 μM ZAC989 or ZAC307 and with increasing concentrations (0.003 to 50 μM) of ZnSO4, CuSO4, (NH4)2Fe(SO4)2,”

[5] = Potentiometric titration, ligand-Zn(II) complex formation; format: binding; conditions: DMSO-water (70:30, vol/vol), 0.5 eq of Zn^2+
Experimental: as §2, §3

[6] = DMSO-water (70:30, vol/vol), CuSO4

In the case of CN(C)c1cc(-n2nc(-c3ccccc3)cc2O)ncn1 [ZAC307, 2-[6-(dimethylamino)pyrimidin-4-yl]-5-phenyl-pyrazol-3-ol], the MIC [1] was 1.3 µg/mL (≈ 4.62 µM), the “copper binding (in words)” value [2] was “binds copper” and the “Ca^2+ binding” value [3] was “negligible”. For the same compound, the “effect of exogenous addition of zinc or copper on the antifungal effects” value [4] was “reversed”, the “fungal growth rate compared to control cells” value [4] was “approximately 50%” and the “formation constant log β1 (1:1 ligand-Zn(II) complex)” value [5] was 7.47. The “formation constant log β2 (2:1 ligand-Zn(II) complex)” value [5] was 13.27 and the “formation constant log β3 (3:1 ligand-Zn(II) complex)” value [5] was 18.14.
In the case of Cc1cc(O)n(-c2cc(N3CC[C@H](Oc4cnccc4C#N)C3)ncn2)n1 [ZAC989, 3-[(3S)-1-[6-(5-hydroxy-3-methyl-pyrazol-1-yl)pyrimidin-4-yl]pyrrolidin-3-yl]oxy-pyridine-4-carbonitrile], the MIC [1] was 1.7 µg/mL (≈ 4.68 µM), the “formation constant log β1 (copper)” value [2, 6] was 7.83 and the “formation constant log β2 (copper)” value [2, 6] was 13.37. For the same compound, the “formation constant log β3 (copper)” value [2, 6] was 20.62, the “copper binding (in words)” value [2] was “chelates copper” and the “Ca^2+ binding” value [3] was “negligible”. The “effect of exogenous addition of zinc or copper on the antifungal effects” value [4] was “reversed”, the “fungal growth rate compared to control cells” value [4] was “approximately 50%” and the “formation constant log β1 (1:1 ligand-Zn(II) complex)” value [5] was 7.35. The “formation constant log β2 (2:1 ligand-Zn(II) complex)” value [5] was 14.30 and the “formation constant log β3 (3:1 ligand-Zn(II) complex)” value [5] was 19.71.
